In paper PMC6018403 (Frontiers in Pharmacology, 2018) one finds 4-week body weight data, which are given here for one molecule.

The test system of the assay is db/db mice. Put plainly: Evaluation of anti-diabetic effects in db/db mice. The class given is in vivo. The settings on record: P < 0.05, metformin 100 mg/kg/d. The procedure:
Eight-week-old male db/db mice (30–35 g) were used, and the details were described in Supplemental Data. The mice were randomly divided into eight groups. Mice were orally administered with metformin (100 mg/kg/d, n = 6), berberine (50 mg/kg/d, n = 6), glycyrrhizic acid (80 mg/kg/d, n = 6), berberine (50 mg/kg/d) combined with low-dose of glycyrrhizic acid (50 mg/kg/d, n = 6), berberine (50 mg/kg/d) combined with high-dose of glycyrrhizic acid (80 mg/kg/d, n = 6), berberine (50 mg/kg/d) combined with Gan-Cao (2.2 g/kg/d, n = 7), and GQD (18.2 g/kg/d, n = 7) for 4 weeks. For the control group, the […] were administered with an equal volume of water. On day 28, after fasted for 12 h, retro-orbital blood samples were collected, stand for 1 h, and then centrifuged (6,000 rpm, 4°C) for 20 min to obtain serum. Biochemical indicators such as blood glucose and insulin were determined on a Mindray BS-800 analyzer (Mindray Bio-Medical Electronics Co.).
Herbal materials and extracts.
The four component herbs, Puerariae Lobatae Radix (Ge-Gen, GG), Scutellariae Radix (Huang-Qin, HQ), Coptidis Rhizoma (Huang-Lian, HL), and Glycyrrhizae Radix et Rhizoma Praeparata cum Melle (Gan-Cao, GC) were purchased from Tianheng Pharmacy. GQD was prepared by decocting the four component herbs […]
of water for three times (1.5 h, 1.5 h, 0.5 h) to obtain the extracts, followed by a pre-extraction of Ge-Gen using 200 mL of water for 0.5 h. The decoctions were combined, filtered, and concentrated in vacuum at 50 °C. GQD-GC was prepared using the same procedure, except that Gan-Cao was removed from the formula. Final concentration of the GQD-GC extract was equivalent to 1.0 g of the crude drugs per mL. For single herb extracts, the herbs were decocted in 8-fold volume of water for three times (1.5 h, 1.5 h, 0.5 h) and then concentrated. […]
For anti-diabetic study, Eight-week-old male db/db mice (30–35 g) were purchased from Card Vince Laboratory animal Co., Ltd. The mice were bred in a cage (318 × 202 × 135 mm) in a breeding room at 25 °C, 60 ± 5% humidity, and a 12-h dark-light […]
On day 28, db/db mice were fasted for 12 h, and blood was collected and centrifuged to obtain serum for insulin and biochemical tests. After that, 150 µL of plasma was prepared by adding 150 µL of internal standard solution, 150 µL of methanol, and 300 µL of acetonitrile. The processing method was consistent with sample preparation for […]
3.1. Optimization of chromatographic separation
Different solvents (67% methanol, and 100% methanol) were compared to effectively extract both hydrophilic and hydrophobic compounds of GQD. […]
better extraction recovery for most compounds. […]

As to `CN(C)C(=N)N=C(N)N` [Metformin, metformin, reference compound], the 4-week body weight entry was “significant decrease”.
